{"source": "patent US8686115B2", "about": "“Compositions and methods for quantitatively monitoring lipids” (The Board of Trustees of the University of Illinois, priority 2009, dated 2014)", "key": {"[1]": {"target": "T1, epsin 1 ENTH domain (SEQ ID NO: 1) variant C96A/S4W (eENTH; SEQ ID NO: 2) (Homo sapiens, UniProt Q9Y6I3, C96A/M10C/S4W)", "T1 construct": "The Epsin1 ENTH domain (1-158 amino acids) was subcloned; GST (C, cleaved yes); made in house; host or cells: E. coli BL21 RIL codon plus", "T1 sequence (Q9Y6I3 1-158 S4W/M10C/C96A)": "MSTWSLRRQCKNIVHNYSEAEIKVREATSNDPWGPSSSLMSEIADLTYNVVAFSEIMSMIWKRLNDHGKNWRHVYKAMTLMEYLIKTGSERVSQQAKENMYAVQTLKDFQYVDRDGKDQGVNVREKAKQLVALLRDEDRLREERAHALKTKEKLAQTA", "test": "SPR equilibrium binding of epsin1 ENTH C96A/S4W (eENTH) to phosphoinositide-containing LUVs", "conditions": "S4W mutant", "description": "(§1) The ENTH domain was engineered to introduce a single labeling site (M10C) on the membrane binding surface while removing an endogenous Cys (C96A). We also performed the S4W mutation to suppress its residual affinity for another lipid, phosphatidylinositol-3,4,5-trisphosphate (PtdIns(3,4,5)P3) (PtdIns(4,5)P2/PtdIns(3,4,5)P3=4 for wild type and >10 for the mutant) and to enhance the overall affinity for PtdIns(4,5)P2-containing membranes (ca. 4-fold) (Table 1).\n(§2) With respect to FIG. 1, an L1 sensor chip was coated with POPC/POPS/PtdIns(4,5)P2 (77:20:3) LUVs. The proteins were incubated with a given concentration of IP3 for 5 minutes before injecting into the SPR instrument. Kinetic SPR measurements were performed in 20 mM Tris-HCL, pH 7.4, containing 0.16 KCl. […] A lower concentration of DAN-eENTH was used than that of PLCδ PH because the former has much higher affinity that the latter. […]\n(§3) E. coli BL21 RIL codon plus (Stratagene) cells were used for protein expression. […] Purity and the concentration of the recombinant proteins were determined by sodium dodecylsulfate-polyacrylamide gel electrophoresis and bicinchoninic acid assay, respectively. The DAN labeling yield of eENTH, which was calculated as the molar ratio of DAN (determined spectrophotometrically at 391 nm using its extinction coefficient of 20,000 cm^−1 M^−1) to protein, was typically 60-70%. […]"}, "[2]": {"tested_on": "epsin 1 ENTH domain (SEQ ID NO: 1) variant C96A/S4W (eENTH; SEQ ID NO: 2)", "test": "SPR equilibrium binding of epsin1 ENTH C96A/S4W (eENTH) to phosphoinositide-containing LUVs", "conditions": "S4W mutation, Table 1", "description": "as §1, §2, §3"}, "[3]": {"target": "T2, epsin 1 ENTH domain (SEQ ID NO: 1) variant C96A (Homo sapiens, UniProt Q9Y6I3, C96A)", "T2 construct": "The Epsin1 ENTH domain (1-158 amino acids) was subcloned; GST (C, cleaved yes); made in house; host or cells: E. coli BL21 RIL codon plus", "T2 sequence (Q9Y6I3 1-158 C96A)": "T1 sequence (Q9Y6I3 1-158 S4W/M10C/C96A) with W4S, C10M", "test": "SPR equilibrium binding of epsin1 ENTH C96A to phosphoinositide-containing LUVs", "conditions": "POPC/POPS/PtdIns(4,5)P2 (77:20:3) LUVs, 20 mM Tris-HCl pH 7.4, 0.16 M KCl, read-out: Kd for PtdIns(4,5)P2", "description": "as §1\n(§4) With respect to FIG. 1, an L1 sensor chip was coated with POPC/POPS/PtdIns(4,5)P2 (77:20:3) LUVs. The proteins were incubated with a given concentration of IP3 for 5 minutes before injecting into the SPR instrument. Kinetic SPR measurements were performed in 20 mM Tris-HCL, pH 7.4, containing 0.16 KCl. […] A lower concentration of DAN-eENTH was used than that of PLCδ PH because the former has much higher affinity that the latter.\n(§5) All mutations (S4W, M10C, and C96A) were performed by polymerase chain reaction mutagenesis and verified by DNA sequencing. eENTH may comprise the following sequence:\nE. coli BL21 RIL codon plus (Stratagene) cells were used for protein expression. Cells were grown in Luria broth media containing 100 μg/ml of ampicillin at 37° C. 0.1 mM of Isopropyl β-D-1-thiogalactopyranoside was added to induce over-expression of recombinant proteins when the OD600 reached 0.5-0.8 and cells were grown for additional 6 to 10 hours at 25° C. Cells were harvested by centrifugation and cell pellets were resuspended in 50 mM Tris-HCl buffer (pH 7.4) containing 160 mM KCl, 1 mM phenylmethanesulphonylfluoride, and 5 mM of dithiothreitol (DTT). Cells were lysed by sonication and the lysate was collected by centrifugation at 4° C. […] Purity and the concentration of the recombinant proteins were determined by sodium dodecylsulfate-polyacrylamide gel electrophoresis and bicinchoninic acid assay, respectively. The DAN labeling yield of eENTH, which was calculated as the molar ratio of DAN (determined spectrophotometrically at 391 nm using its extinction coefficient of 20,000 cm^−1 M^−1) to protein, was typically 60-70%. […]"}, "[4]": {"target": "T3, DAN-eENTH: epsin 1 ENTH domain variant M10C/C96A/S4W, SEQ ID NO: 2, labeled with DAN at C10 (Homo sapiens, UniProt Q9Y6I3, C96A/M10C/S4W)", "T3 construct": "The Epsin1 ENTH domain (1-158 amino acids) was subcloned; GST (C, cleaved yes); made in house; host or cells: E. coli BL21 RIL codon plus", "T3 sequence (Q9Y6I3 1-158 S4W/M10C/C96A)": "T1 sequence (Q9Y6I3 1-158 S4W/M10C/C96A)", "test": "SPR equilibrium binding of DAN-eENTH to phosphoinositide-containing LUVs", "description": "Provided herein is an ENTH domain of epsin1, which is linked to 2-dimethylamino-6-acyl-naphthalene (DAN). The ENTH domain contains 3 mutations, which are substitutions: M10C, C96A, and S4W. See SEQ ID NO:2. This DAN-eENTH (M10C, C96A, S4W) is an exceptional, high-affinity phosphatidylinositol-4,5-bisphosphate (PtdIns(4,5)P2)-binding protein.\nas §1, §4, §5\nE. coli BL21 RIL codon plus (Stratagene) cells were used for protein expression. Cells were grown in Luria broth media containing 100 μg/ml of ampicillin at 37° C. 0.1 mM of Isopropyl β-D-1-thiogalactopyranoside was added to induce over-expression of recombinant proteins when the OD600 reached 0.5-0.8 and cells were grown for additional 6 to 10 hours at 25° C. Cells were harvested by centrifugation and cell pellets were resuspended in 50 mM Tris-HCl buffer (pH 7.4) containing 160 mM KCl, 1 mM phenylmethanesulphonylfluoride, and 5 mM of dithiothreitol (DTT). Cells were lysed by sonication and the lysate was collected by centrifugation at 4° C. The GST-affinity resin (GenScript) for GST-tagged proteins or nickel-nitrilotriacetic acid resin (Qiagen, Valencia, Calif.) for His6-tagged proteins was added into the cell lysate and the mixture was gently shaken for 30 minutes at 4° C. The mixture was applied to a column and the column was washed once with 50 mM Tris-HCl buffer (pH 7.4) containing 160 mM KCl and 5 mM of DTT to reduce thiol group, and washed several times with the same buffer without DTT to remove DTT. For DAN labeling, 100 μg of acrylodan was added to the column at this stage and incubated 16 hours at 4° C. The excess acrylodan was removed by washing the column with the buffer several times. Thrombin (Invitrogen) was added to column to remove the GST tag and the mixture was incubated at 4° C. for 10 hours. The labeled protein was eluted from the column by and the collected fractions were applied to ion exchange column. Purity and the concentration of the recombinant proteins were determined by sodium dodecylsulfate-polyacrylamide gel electrophoresis and bicinchoninic acid assay, respectively. The DAN labeling yield of eENTH, which was calculated as the molar ratio of DAN (determined spectrophotometrically at 391 nm using its extinction coefficient of 20,000 cm^−1 M^−1) to protein, was typically 60-70%.\nLUVs were prepared by extrusion using a 100 nm-pore membrane. GUVs were prepared by electroformation. […]"}}, "note": "Where a chain is given by its changes, count along the chain named."}
{"compound": "CCCCCCCCCCCCCCCC(=O)OC[C@H](COP(=O)(O)O[C@@H]1[C@H](O)[C@H](O)[C@@H](OP(=O)(O)O)[C@H](OP(=O)(O)O)[C@H]1O)OC(=O)CCCCCCCCCCCCCCC", "note": "[PtdIns(4,5)P2, phosphatidylinositol-4,5-bisphosphate]", "values": [{"measurement": "PtdIns(4,5)P2/PtdIns(3,4,5)P3 selectivity", "setting": "[1]", "result": "> 10"}, {"measurement": "enhancement of overall affinity for PtdIns(4,5)P2-containing membranes", "setting": "[2]", "result": "ca. 4 fold"}, {"measurement": "Kd", "setting": "[3]", "result": 53, "unit": "nM"}, {"measurement": "Kd", "setting": "[4]; SPR, POPC/POPS/PtdIns(4,5)P2 (77:20:3) LUVs, 20 mM Tris-HCl pH 7.4, 0.16 M KCl, read-out: Kd for PtdIns(4,5)P2", "result": 4, "unit": "nM"}, {"measurement": "affinity for PtdIns(4,5)P2-containing vesicles relative to eENTH", "setting": "[4]; higher than eENTH", "result": "about 3 fold"}, {"measurement": "affinity for PtdIns(4,5)P2-containing vesicles relative to wild type", "setting": "[4]; higher than the wild type", "result": 12, "unit": "fold"}]}
